Experimental data as given in the NIST ThermoML archive (doi:10.1021/je050020m).
± gives the expanded uncertainty stated by the source.

Assay: xn = mol fraction of the nth substance listed
Settings: Liquid, Vibrating tube method

`CCCCCCCCCC` [decane] + O=C=O gave a mass density (313.11 K, 20002 kPa, x2 = 0.9663) of 840.48 ± 0.55 kg/m3, a mass density (313.11 K, 20018 kPa, x2 = 0.4536) of 757.13 ± 0.54 kg/m3 and a mass density (313.11 K, 21015 kPa, x2 = 0.9663) of 848.66 ± 0.55 kg/m3. For the same compound, the mass density (313.11 K, 21018 kPa, x2 = 0.4536) was 758.18 ± 0.54 kg/m3, the mass density (313.11 K, 22006 kPa, x2 = 0.4536) was 759.18 ± 0.55 kg/m3 and the mass density (313.11 K, 22023 kPa, x2 = 0.9663) was 856.28 ± 0.54 kg/m3. It also gave a mass density (313.11 K, 23003 kPa, x2 = 0.4536) of 760.18 ± 0.55 kg/m3, a mass density (313.11 K, 23021 kPa, x2 = 0.9663) of 863.4 ± 0.53 kg/m3 and a mass density (313.11 K, 24023 kPa, x2 = 0.4536) of 761.23 ± 0.56 kg/m3. For the same compound, the mass density (313.11 K, 24063 kPa, x2 = 0.9663) was 870.36 ± 0.53 kg/m3, the mass density (313.11 K, 24976 kPa, x2 = 0.9663) was 876.18 ± 0.52 kg/m3 and the mass density (313.11 K, 25010 kPa, x2 = 0.4536) was 762.23 ± 0.58 kg/m3. For the same compound, the mass density (313.12 K, 12053 kPa, x2 = 0.8114) was 782.82 ± 0.67 kg/m3, the mass density (313.12 K, 13017 kPa, x2 = 0.8114) was 785.68 ± 0.46 kg/m3 and the mass density (313.12 K, 14021 kPa, x2 = 0.8114) was 788.54 ± 0.47 kg/m3. It also gave a mass density (313.12 K, 15103 kPa, x2 = 0.8114) of 791.51 ± 0.47 kg/m3, a mass density (313.12 K, 15990 kPa, x2 = 0.8114) of 793.84 ± 0.47 kg/m3 and a mass density (313.12 K, 16981 kPa, x2 = 0.8114) of 796.39 ± 0.48 kg/m3. The mass density (313.12 K, 17993 kPa, x2 = 0.8114) was 798.92 ± 0.48 kg/m3, the mass density (313.12 K, 19038 kPa, x2 = 0.8114) was 801.45 ± 0.49 kg/m3 and the mass density (313.12 K, 20009 kPa, x2 = 0.8114) was 803.73 ± 0.49 kg/m3. The mass density (313.12 K, 21018 kPa, x2 = 0.8114) was 806.06 ± 0.5 kg/m3, the mass density (313.12 K, 22020 kPa, x2 = 0.8114) was 808.29 ± 0.5 kg/m3 and the mass density (313.12 K, 22999 kPa, x2 = 0.8114) was 810.42 ± 0.5 kg/m3. It also gave a mass density (313.12 K, 24019 kPa, x2 = 0.8114) of 812.6 ± 0.51 kg/m3, a mass density (313.12 K, 25017 kPa, x2 = 0.8114) of 814.7 ± 0.61 kg/m3 and a mass density (323.04 K, 11016 kPa, x2 = 0.9663) of 580.54 ± 1.3 kg/m3. It also gave a mass density (323.04 K, 12005 kPa, x2 = 0.8114) of 762.12 ± 0.77 kg/m3, a mass density (323.04 K, 12030 kPa, x2 = 0.9663) of 636.15 ± 1.1 kg/m3 and a mass density (323.04 K, 13009 kPa, x2 = 0.8114) of 765.56 ± 0.48 kg/m3. It also gave a mass density (323.04 K, 13015 kPa, x2 = 0.9663) of 672.02 ± 0.91 kg/m3, a mass density (323.04 K, 14007 kPa, x2 = 0.9663) of 698.83 ± 0.8 kg/m3 and a mass density (323.04 K, 14026 kPa, x2 = 0.8114) of 769 ± 0.48 kg/m3. It also gave a mass density (323.04 K, 15008 kPa, x2 = 0.8114) of 772.02 ± 0.49 kg/m3, a mass density (323.04 K, 15021 kPa, x2 = 0.9663) of 721.04 ± 0.72 kg/m3 and a mass density (323.04 K, 16018 kPa, x2 = 0.9663) of 739.12 ± 0.67 kg/m3. The mass density (323.04 K, 16046 kPa, x2 = 0.8114) was 775.13 ± 0.49 kg/m3, the mass density (323.04 K, 17018 kPa, x2 = 0.8114) was 777.99 ± 0.49 kg/m3 and the mass density (323.04 K, 17026 kPa, x2 = 0.9663) was 754.76 ± 0.64 kg/m3. For the same compound, the mass density (323.04 K, 18002 kPa, x2 = 0.8114) was 780.75 ± 0.49 kg/m3, the mass density (323.04 K, 18010 kPa, x2 = 0.9663) was 768.22 ± 0.62 kg/m3 and the mass density (323.04 K, 19001 kPa, x2 = 0.9663) was 780.23 ± 0.6 kg/m3. For the same compound, the mass density (323.04 K, 19025 kPa, x2 = 0.8114) was 783.58 ± 0.49 kg/m3, the mass density (323.04 K, 20025 kPa, x2 = 0.9663) was 791.43 ± 0.58 kg/m3 and the mass density (323.04 K, 20031 kPa, x2 = 0.8114) was 786.22 ± 0.49 kg/m3. For the same compound, the mass density (323.04 K, 21021 kPa, x2 = 0.9663) was 801.33 ± 0.57 kg/m3, the mass density (323.04 K, 21047 kPa, x2 = 0.8114) was 788.86 ± 0.5 kg/m3 and the mass density (323.04 K, 21988 kPa, x2 = 0.8114) was 791.16 ± 0.5 kg/m3. It also gave a mass density (323.04 K, 22023 kPa, x2 = 0.9663) of 810.55 ± 0.56 kg/m3, a mass density (323.04 K, 22999 kPa, x2 = 0.8114) of 793.66 ± 0.5 kg/m3 and a mass density (323.04 K, 23026 kPa, x2 = 0.9663) of 819.05 ± 0.55 kg/m3. It also gave a mass density (323.04 K, 24016 kPa, x2 = 0.8114) of 796.11 ± 0.5 kg/m3, a mass density (323.04 K, 24036 kPa, x2 = 0.9663) of 827.07 ± 0.55 kg/m3 and a mass density (323.04 K, 25030 kPa, x2 = 0.9663) of 834.47 ± 0.54 kg/m3. It also gave a mass density (323.04 K, 25054 kPa, x2 = 0.8114) of 798.55 ± 0.51 kg/m3, a mass density (323.05 K, 1989 kPa, x2 = 0.0551) of 710.33 ± 0.55 kg/m3 and a mass density (323.05 K, 3015 kPa, x2 = 0.0551) of 711.28 ± 0.55 kg/m3. For the same compound, the mass density (323.05 K, 3984 kPa, x2 = 0.0551) was 712.18 ± 0.55 kg/m3, the mass density (323.05 K, 5002 kPa, x2 = 0.0551) was 713.14 ± 0.56 kg/m3 and the mass density (323.05 K, 6010 kPa, x2 = 0.0551) was 714.04 ± 0.56 kg/m3. It also gave a mass density (323.05 K, 7043 kPa, x2 = 0.0551) of 714.97 ± 0.56 kg/m3, a mass density (323.05 K, 8018 kPa, x2 = 0.0551) of 715.86 ± 0.57 kg/m3 and a mass density (323.05 K, 9009 kPa, x2 = 0.0551) of 716.73 ± 0.57 kg/m3. For the same compound, the mass density (323.05 K, 10008 kPa, x2 = 0.0551) was 717.66 ± 0.58 kg/m3, the mass density (323.05 K, 11036 kPa, x2 = 0.0551) was 718.47 ± 0.58 kg/m3 and the mass density (323.05 K, 11995 kPa, x2 = 0.0551) was 719.35 ± 0.58 kg/m3. The mass density (323.05 K, 13035 kPa, x2 = 0.0551) was 720.16 ± 0.59 kg/m3.
